Results as given in US20230382919A1, “OXA- IBOGAINE INSPIRED ANALOGUES FOR TREATMENT OF NEUROLOGICAL AND PSYCHIATRIC DISORDERS” (The Trustees of Columbia University in the City of New York, priority 2021, published 2023).
Like-named read-outs stand apart in the source and are kept apart here.

Columns and labels:
KOR = KOR (Rattus norvegicus (Rat), UniProt P34975); experiment: KOR agonist (cAMP) assay, CHO cells (commercial); format: cell-based; conditions: for Emax at 10 µM / Emax: read-out: % of control agonist maximal response (KOR)
Description: (§1) Potency (IC50 and EC50) and efficacy values for hERG, rKOR-CHO, hMOR-CHO, h5-HT2A-HEK, h5-HT2B-CHO, h5-HT2C HEK were obtained by screening the selected compounds via commercially available assay services.

5-HT2C = 5-HT2C (Homo sapiens (Human), UniProt P28335); experiment: 5-HT2C agonist (IP1) assay, HEK-293 cells (commercial); format: cell-based; conditions: for Emax at 10 µM: HEK293, read-out: % of control agonist maximal response (5-HT2C); for EC50: IP1 agonist assay
Chain of 5-HT2C (P28335 whole entry, looked up): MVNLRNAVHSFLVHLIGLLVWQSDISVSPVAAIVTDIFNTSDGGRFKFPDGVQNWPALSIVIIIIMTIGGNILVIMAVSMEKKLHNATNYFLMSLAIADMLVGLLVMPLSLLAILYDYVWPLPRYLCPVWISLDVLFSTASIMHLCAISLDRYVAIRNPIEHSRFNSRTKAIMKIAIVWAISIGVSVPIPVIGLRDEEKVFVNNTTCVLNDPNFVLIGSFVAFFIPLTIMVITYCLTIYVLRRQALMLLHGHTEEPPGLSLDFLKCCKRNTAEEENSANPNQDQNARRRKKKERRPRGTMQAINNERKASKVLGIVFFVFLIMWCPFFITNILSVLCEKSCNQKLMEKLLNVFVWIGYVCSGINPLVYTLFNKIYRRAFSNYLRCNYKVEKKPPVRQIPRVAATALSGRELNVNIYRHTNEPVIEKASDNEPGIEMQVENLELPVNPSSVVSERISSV
Description: as §1

5-HT2B = 5-HT2B (Homo sapiens (Human), UniProt P41595); experiment: 5-HT2B agonist (IP1) assay, CHO cells (commercial); format: cell-based; conditions: for Emax at 10 µM: CHO, read-out: % of control agonist maximal response (5-HT2B); for EC50: IP1 agonist assay
Chain of 5-HT2B (P41595 whole entry): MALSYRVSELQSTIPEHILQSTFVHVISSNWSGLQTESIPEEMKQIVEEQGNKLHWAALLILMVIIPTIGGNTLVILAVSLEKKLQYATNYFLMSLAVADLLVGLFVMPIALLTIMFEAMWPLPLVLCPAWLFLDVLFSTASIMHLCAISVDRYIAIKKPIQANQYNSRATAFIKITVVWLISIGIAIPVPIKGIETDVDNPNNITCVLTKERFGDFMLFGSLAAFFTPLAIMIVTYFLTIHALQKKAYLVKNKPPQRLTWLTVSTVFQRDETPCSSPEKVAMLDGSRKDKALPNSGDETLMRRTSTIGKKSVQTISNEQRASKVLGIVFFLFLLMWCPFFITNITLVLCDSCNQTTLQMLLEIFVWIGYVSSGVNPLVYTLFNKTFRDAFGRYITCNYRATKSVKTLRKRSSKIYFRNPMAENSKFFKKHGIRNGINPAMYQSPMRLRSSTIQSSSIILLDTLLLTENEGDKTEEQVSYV
Description: as §1

5-HT2A = 5-HT2A (Homo sapiens (Human), UniProt P28223); experiment: 5-HT2A agonist (IP1) assay, HEK-293 cells (commercial); format: cell-based; conditions: for Emax at 10 µM: HEK293, read-out: % of control agonist maximal response (5-HT2A); for EC50: IP1 agonist assay
Description: as §1

hERG = hERG (Homo sapiens (Human), UniProt Q12809); experiment: hERG radioligand ([3H]Dofetilide) displacement binding assay (commercial); conditions: Table 2
Chain of hERG (Q12809 whole entry): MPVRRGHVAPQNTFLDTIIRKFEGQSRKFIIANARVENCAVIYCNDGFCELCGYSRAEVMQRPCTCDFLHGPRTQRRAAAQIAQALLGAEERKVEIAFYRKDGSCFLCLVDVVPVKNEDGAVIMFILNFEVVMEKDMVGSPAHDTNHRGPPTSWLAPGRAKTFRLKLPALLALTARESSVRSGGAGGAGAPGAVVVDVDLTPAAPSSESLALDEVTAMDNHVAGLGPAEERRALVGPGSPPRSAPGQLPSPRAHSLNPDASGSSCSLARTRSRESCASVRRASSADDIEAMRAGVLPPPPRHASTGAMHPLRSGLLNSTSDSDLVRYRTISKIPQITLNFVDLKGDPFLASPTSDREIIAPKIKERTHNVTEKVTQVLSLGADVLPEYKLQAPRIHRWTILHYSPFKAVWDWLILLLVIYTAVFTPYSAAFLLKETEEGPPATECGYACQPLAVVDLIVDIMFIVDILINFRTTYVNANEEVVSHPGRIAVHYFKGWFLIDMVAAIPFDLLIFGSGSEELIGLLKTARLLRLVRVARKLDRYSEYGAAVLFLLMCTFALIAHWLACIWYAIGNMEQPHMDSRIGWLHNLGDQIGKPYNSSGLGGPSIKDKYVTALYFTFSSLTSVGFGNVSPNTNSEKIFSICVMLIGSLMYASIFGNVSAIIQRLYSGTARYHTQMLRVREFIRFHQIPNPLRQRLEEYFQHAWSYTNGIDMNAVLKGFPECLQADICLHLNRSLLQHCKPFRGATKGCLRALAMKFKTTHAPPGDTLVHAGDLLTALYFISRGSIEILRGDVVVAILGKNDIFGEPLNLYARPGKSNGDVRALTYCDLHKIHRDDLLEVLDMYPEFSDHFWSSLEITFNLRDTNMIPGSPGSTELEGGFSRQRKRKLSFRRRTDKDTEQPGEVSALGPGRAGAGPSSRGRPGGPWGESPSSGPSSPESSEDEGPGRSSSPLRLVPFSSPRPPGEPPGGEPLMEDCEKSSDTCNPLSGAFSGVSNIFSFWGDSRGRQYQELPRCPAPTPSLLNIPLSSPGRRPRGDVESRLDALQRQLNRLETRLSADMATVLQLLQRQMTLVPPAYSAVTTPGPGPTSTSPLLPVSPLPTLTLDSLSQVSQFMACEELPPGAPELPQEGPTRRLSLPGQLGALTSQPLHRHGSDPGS
Description: as §1

hSERT = hSERT (Homo sapiens (Human), UniProt P31645); experiment: hSERT fluorometric screening assay (APP+ uptake, hSERT-HEK cells); format: cell-based; conditions: average ± SEM, n ≥ 4; read-out: IC50 SERT [μM ± SEM]
Procedure: (§2) Inhibition assays of transporters (hSERT and rVMAT2) were performed according to the following protocol.
(§3) Stably transfected hSERT-HEK and rVMAT2-HEK cellular cultures were maintained in Dulbecco's Minimal Essential Medium (DMEM) with GlutaMAX (Gibco) with the following additions: 10% (v/v) Fetal Bovine Serum (FBS, Atlanta Biologicals), 100 U/mL Penicillin (Gibco), and 10 μg/mL Streptomycin (Gibco). With regards to the former cell lineage, an additional ingredient, 500 μg/mL Geneticin (G418) (Gibco) was included to preserve the respective transgene.
(§4) For both hSERT and rVMAT2 screening experiments, respective singly transfected cells were seeded at a density of 0.09×10^6 cells/well in poly-D-Lysine (Alamanda Polymers, Inc.) coated white solid-bottom 96-well plates (Costar). Growth was permitted for approximately 44 hours in said aqueous media and at an incubation environment of 37° C. and 5% Carbon Dioxide. At the beginning of the experiment, the cellular growth solution was aspirated, and individual cells were rinsed with 150 μL of 1×Dulbecco's Phosphate Buffered Saline (PBS; HyClone). 63 μL of Experimental Media (consisting of the following contents: DMEM without phenol red but with 4.5 g/L of D-Glucose (Gibco), 1% (v/v) FBS (Atlanta Biologicals), 100 U/mL Penicillin (Gibco), and 10 μg/mL Streptomycin (Gibco)) with 2×tiered concentrations of inhibitor (or DMSO, the vehicle of these experiments) were added to the respective wells. Control inhibitors used in these studies include Imipramine for hSERT experiments, and Reserpine for rVMAT2 experiments (Eiden, L. E. and Weihe, E. 2011; Sette, M. et al. 1983). At the conclusion of the pre-incubation period (60 minutes for hSERT experiments and 30 minutes for rVMAT2 experiments), 63 μL of Experimental Media containing 2×various concentrations of tested inhibitor (or vehicle) along with a specified amount of fluorescent substrate, APP^+ (Karpowicz, R. J. et al 2013) (final concentration: 1.1 μM for hSERT experiments) or FFN206 (Hu, G. et al. 2013) (final concentration: 0.75 μM for rVMAT2 experiments) were added to the present solution contained within the wells. […] A final solution of 120 μL of PBS is finally added to all corresponding wells for cell maintenance before undergoing fluorescence uptake reading by a BioTek H1MF plate reader. […]
(§5) Numerical analysis of the collected experimental data preceded as accordingly. Respective inhibitor values were first subtracted from vehicular values to quantify the respective fluorescence uptake. This metric was then analyzed using the dose-response-inhibitor nonlinear curve fitting model ([inhibitor] vs response (three parameters)) as supplied by GraphPad Prism 8 software. […]

rVMAT2 = rVMAT2 (Rattus norvegicus (Rat), UniProt Q01827); experiment: rVMAT2 fluorometric screening assay (FFN206 uptake, rVMAT2-HEK cells); format: cell-based; conditions: average ± SEM, n ≥ 4; read-out: IC50 VMAT2 [μM ± SEM]
Chain of rVMAT2 (Q01827 whole entry): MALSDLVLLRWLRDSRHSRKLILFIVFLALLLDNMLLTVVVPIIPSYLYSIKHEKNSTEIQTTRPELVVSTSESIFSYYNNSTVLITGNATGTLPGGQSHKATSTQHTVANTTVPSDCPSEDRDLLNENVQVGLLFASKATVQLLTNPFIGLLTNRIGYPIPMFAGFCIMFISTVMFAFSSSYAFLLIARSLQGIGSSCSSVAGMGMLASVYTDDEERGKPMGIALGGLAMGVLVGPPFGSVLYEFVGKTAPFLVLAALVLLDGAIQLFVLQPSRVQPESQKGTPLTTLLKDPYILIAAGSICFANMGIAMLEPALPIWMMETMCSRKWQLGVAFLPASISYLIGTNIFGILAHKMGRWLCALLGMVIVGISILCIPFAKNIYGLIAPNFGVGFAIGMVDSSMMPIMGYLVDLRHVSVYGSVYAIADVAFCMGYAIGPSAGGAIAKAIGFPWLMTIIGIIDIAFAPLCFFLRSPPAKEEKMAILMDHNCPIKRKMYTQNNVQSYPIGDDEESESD
Procedure: as §2, §3, §4, §5

rat KOR (rKOR) = rat KOR (rKOR) (Rattus norvegicus (Rat), UniProt P34975); experiment: G-protein BRET functional opioid assay, KOR; format: cell-based; conditions: for Emax: normalized to U-50,488, read-out: % of control agonist maximal response (KOR)
Procedure: (§6) HEK-293T cells were obtained from the American Type Culture Collection (Rockville, MD) and were cultured in a 5% CO2 atmosphere at 37° C. in Dulbecco's Modified Eagle Medium (high glucose #11965; Life Technologies Corp.; Grand Island, NY) supplemented with 10% FBS (Premium Select, Atlanta Biologicals; Atlanta, GA), 100 U/mL penicillin, and 100 μg/mL streptomycin (#15140, Life Technologies). DNA Constructs: The mouse MOR (mMOR), the mouse DOR (mDOR) and the rat KOR (rKOR) were provided by Dr Lakshmi Devi at Mount Sinai School of Medicine. The G proteins used included untagged GαoB with Renilla luciferase 8 (RLuc8) inserted at position 91 (GαoB-RLuc8); Gβ1 (β1); Gγ2 which was fused to the full-length mVenus at its N-terminus via the amino acid linker GSAGT (mVenus-γ2). All constructs were sequence confirmed prior to use in experiments.
(§7) Transfection: The following cDNA amounts were transfected into HEK-293T cells (5×10^6 cells/plate) in 10-cm dishes using polyethylenimine (PEI) in a 1:1 ratio (diluted in Opti-MEM, Life Technologies): 2.5 μg MOR/DOR/KOR, 0.125 μg GαoBRLuc8, 6.25 μg (1, 6.25 μg mVenus-γ2. Cells were maintained in the HEK-293T media described above. After 24 hours the media was changed, and the experiment was performed 24 hours later (48 hours after transfection). BRET: Transfected cells were dissociated and re-suspended in phosphate-buffered saline (PBS). Approximately 200,000 cells/well were added to a black-framed, white-well, 96-well plate (#60050; Perkin Elmer; Waltham, MA). The microplate was centrifuged and the cells were resuspended in PBS. After 5 minutes, 5 μM of the luciferase substrate coelenterazine H was added to each well. After 5 minutes, ligands were added and the BRET signal was measured 5 minutes later on a PHERAstar FS plate reader. The BRET signal was quantified by calculating the ratio of the light emitted by the energy acceptor, mVenus (510-540 nm), over the light emitted by the energy donor, RLuc8 (485 nm). This drug-induced BRET signal was normalized using the Emax of a known agonist (DAMGO, DPDPE or U-50,488) as the maximal response at MOR/DOR/KOR. Data were analyzed using the dose-response-stimulation nonlinear curve fitting model (log[agonist] vs. response (three parameters)).

mouse DOR (mDOR) = mouse DOR (mDOR) (Mus musculus (Mouse), UniProt P32300); experiment: G-protein BRET functional opioid assay, DOR; format: cell-based; conditions: for Emax: normalized to DPDPE, read-out: % of control agonist maximal response (DOR)
Procedure: as §6, §7

mouse MOR (mMOR) = mouse MOR (mMOR) (Mus musculus (Mouse), UniProt P42866); experiment: G-protein BRET functional opioid assay, MOR; format: cell-based; conditions: for Emax: normalized to DAMGO, read-out: % of control agonist maximal response (MOR)
Chain of mouse MOR (mMOR) (P42866 whole entry, looked up): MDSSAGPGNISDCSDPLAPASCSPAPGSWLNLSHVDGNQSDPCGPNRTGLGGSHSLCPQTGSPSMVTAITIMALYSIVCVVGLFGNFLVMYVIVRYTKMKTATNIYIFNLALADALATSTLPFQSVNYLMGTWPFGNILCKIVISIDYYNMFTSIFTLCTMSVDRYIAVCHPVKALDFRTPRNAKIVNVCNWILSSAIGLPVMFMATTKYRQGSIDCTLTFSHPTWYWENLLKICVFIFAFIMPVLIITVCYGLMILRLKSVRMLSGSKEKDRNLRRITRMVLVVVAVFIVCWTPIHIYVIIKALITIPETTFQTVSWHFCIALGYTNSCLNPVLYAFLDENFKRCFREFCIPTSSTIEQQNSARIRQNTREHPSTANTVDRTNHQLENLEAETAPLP
Procedure: as §6, §7

[1] = Table 2, cAMP agonist assay, rat KOR, CHO

CN1CCc2oc3ccccc3c2CC1 [drawing 162]
Emax at 10 µM (KOR; CHO, Table 2): 36% | EC50 (KOR; [1]): ~4200 nM | Emax at 10 µM (5-HT2C; Table 2): 99% | EC50 (5-HT2C; Table 2): ~200 nM | Emax at 10 µM (5-HT2B; Table 2): 4% | EC50 (5-HT2B; Table 2): > 10000 nM | Emax at 10 µM (5-HT2A; Table 2): 26% | EC50 (5-HT2A; Table 2): > 10000 nM | IC50 (hERG; [3H]Dofetilide displacement, HEK-293): > 10000 nM | inhibition at 10 µM (hERG; human, HEK-293 cells expressing hERG, probe [3H]Dofetilide, at 10 μM, read-out: % inhibition of control specific binding (hERG)): 11%

Oc1ccc2oc3c(c2c1)CCNCC3 [drawing 172]
Emax at 10 µM (KOR; CHO, Table 5, CAMP Assay): < 0% | EC50 (KOR; Table 5, CAMP Assay): > 10000 nM

CN1CCCc2oc3ccccc3c2C1 [drawing 164]
Emax at 10 µM (KOR; CHO, Table 2): 47% | EC50 (KOR; [1]): ~3000 nM | Emax at 10 µM (5-HT2C; Table 2): 44% | EC50 (5-HT2C; Table 2): ~14000 nM | Emax at 10 µM (5-HT2B; Table 2): 3% | EC50 (5-HT2B; Table 2): > 10000 nM | Emax at 10 µM (5-HT2A; Table 2): 4% | EC50 (5-HT2A; Table 2): > 10000 nM

c1ccc2c3c(oc2c1)CCCNC3 [drawing 167]
IC50 (hSERT): 11 ± 2.9 µM | IC50 (rVMAT2): 0.061 ± 0.01 µM

Oc1ccc2oc3c(c2c1)CCNCC3 [drawing 169]
Emax at 10 µM (5-HT2C; Table 4): 93% | EC50 (5-HT2C; Table 4): 100 nM | Emax at 10 µM (5-HT2B; Table 4): 19% | EC50 (5-HT2B; Table 4): > 10000 nM | Emax at 10 µM (5-HT2A; Table 4): 72% | EC50 (5-HT2A; Table 4): 600 nM

Oc1ccc2oc3c(c2c1)CCN1CCCC3C1 (stereo not shown) [drawing 175]
EC50 (rat KOR (rKOR)): 140 nM | Emax (rat KOR (rKOR)): 30% | Emax (KOR; CHO, Table 5, CAMP Assay): 91% | EC50 (KOR; Table 5, CAMP Assay): 50 nM | EC50 (mouse DOR (mDOR)): 120 nM | Emax (mouse DOR (mDOR)): 55% | EC50 (mouse MOR (mMOR)): 110 nM | Emax (mouse MOR (mMOR)): 44%

CN1CCc2oc3ccccc3c2CC1 [drawing 166]
IC50 (hSERT): 1.4 ± 0.3 µM | IC50 (rVMAT2): 4.9 ± 0.94 µM

CC1Cc2oc3ccc(O)cc3c2CCN1 (stereo not shown) [drawing 173]
EC50 (rat KOR (rKOR)): 130 nM | Emax (rat KOR (rKOR)): 36% | Emax (KOR; CHO, Table 5, CAMP Assay): 96% | EC50 (KOR; Table 5, CAMP Assay): 60 nM | EC50 (mouse DOR (mDOR)): 620 nM | Emax (mouse DOR (mDOR)): 45% | EC50 (mouse MOR (mMOR)): 200 nM | Emax (mouse MOR (mMOR)): 16%
